From patent US20260069584A1, “METHODS OF TREATING CHRONIC MYELOID LEUKEMIA USING THE TYROSINE KINASE INHIBITOR VODOBATINIB” (Sun Pharma Advanced Research Company Ltd., priority 2022, published 2026)
Where two headings read alike, the source gives them in different places.

Columns and labels:
[1] = Single- and repeat-dose studies in preclinical models, oral route
[2] = Single ascending dose (SAD) study in healthy male volunteers: pharmacokinetics; format: in vivo, human; details: for Dose proportionality, Slope Estimate: 6 to 24 mg, n 18, power model; for Dose proportionality, Coefficient of determination / Dose proportionality, Intercept Estimate: n 18
Description: Initially in the single ascending dose (SAD) study the safety, tolerability, and pharmacokinetics of the compound of Formula I at 6 mg, 12 mg, and 24 mg doses in healthy human male volunteers were evaluated. In this study, the healthy male volunteers within the mean age group of 28.7-35 years were orally administered an investigational medicinal product (IMP) or a placebo after an overnight fast (of at least 8 hours). The IMP used in this study was a hard gelatin capsule comprising the compound of Formula I of varying sizes containing either 6 mg or 24 mg of the compound of Formula I and the excipients. For the 12 mg dose, two capsules of 6 mg were used. The placebo formulation containing the excipients matched the compound of Formula I capsules in shape, size, and color. […] The median time of maximum concentration (Tmax: 2.5-3 hours, across dose range) was independent of the dose level. Dose-related increases in exposure (AUC and Cmax) were observed. […] The inter-subject variability, for the PK parameters, was generally higher in the 12 mg dose group when compared with that in the 6 mg and 24 mg dose groups (Table 07, and FIG. 1)
Referring to FIG. 1, The dose proportionality assessment using ANCOVA was assessed in the PK analysis set. […] The estimates for the slope for all exposure parameters were between 0.9833 and 1.016.

[3] = male, human, plasma, oral, 6 mg (N = 6), mean
[4] = male, human, plasma, oral, 12 mg (N = 6), mean
[5] = male, human, plasma, oral, 24 mg (N = 6), mean

Cc1ccc(C(=O)NNC(=O)c2c(C)cccc2Cl)cc1C#Cc1cnc2ccccc2c1 [compound of Formula I, N′-(2-chloro-6-methylbenzoyl)-4-methyl-3-[2-(3-quinolyl)ethynyl]-benzohydrazide]
adverse events ([1]; multiple efficacious doses): no specific adverse events
systemic exposure ([1]; oral route, daily dosing): systemic bioavailability
AUC ([1]; plasma, oral): 13400 ng·h/mL
CL/F ([2]; 6 mg (N = 6), geometric mean): 3.708 L/h
AUC(0-inf)/D ([2]; 6 mg (N = 6), mean): 289 [ng/mL × hour]/mg
CL/F ([2]; 12 mg (N = 6), geometric mean): 4.956 L/h
AUC(0-inf)/D ([2]; 12 mg (N = 6), mean): 230.3 [ng/mL × hour]/mg
Tmax ([2]; 12 mg (N = 6), median): 3 h
CL/F ([2]; 24 mg (N = 6), geometric mean): 3.8 L/h
AUC(0-inf)/D ([2]; 24 mg (N = 6), mean): 274.3 [ng/mL × hour]/mg
Tmax ([2]; 24 mg (N = 6), median): 2.75 h
Dose proportionality, Slope Estimate ([2]; AUC(0-inf) (ng*h/mL)): 0.9833
Dose proportionality, Coefficient of determination ([2]; AUC(0-inf) (ng*h/mL)): 0.6145
Dose proportionality, Intercept Estimate ([2]; AUC(0-inf) (ng*h/mL)): 5.534
Dose proportionality, Slope Estimate ([2]; AUC(0-last) (ng*h/mL)): 1.016
Dose proportionality, Coefficient of determination ([2]; AUC(0-last) (ng*h/mL)): 0.6425
Dose proportionality, Intercept Estimate ([2]; AUC(0-last) (ng*h/mL)): 5.389
Dose proportionality, Slope Estimate ([2]; Cmax (ng/mL)): 0.9884
Dose proportionality, Coefficient of determination ([2]; Cmax (ng/mL)): 0.6832
Dose proportionality, Intercept Estimate ([2]; Cmax (ng/mL)): 3.470
apparent systemic clearance (CL/F) ([2]; across dose range 6, 12, 24 mg): 3.708 to 4.956 L/h
Vd/F ([2]; male, human, plasma, oral, 6 mg, 6 mg (N = 6), geometric mean, read-out: Vz/F): 91.6 L
half-life ([2]; male, human, plasma, oral, 6 mg, 6 mg (N = 6), geometric mean, read-out: t1/2 (converted)): 17.1 h
AUC(0-t) ([2]; male, human, plasma, oral, 6 mg, 6 mg (N = 6), mean, read-out: AUC(0-24)): 1140 ng·h/mL
AUC(0-t) ([2]; male, human, plasma, oral, 6 mg, 6 mg (N = 6), mean, read-out: AUC(0-last)): 1570 ng·h/mL
Vd/F ([2]; male, human, plasma, oral, 12 mg, 12 mg (N = 6), geometric mean, read-out: Vz/F): 90.8 L
half-life ([2]; male, human, plasma, oral, 12 mg, 12 mg (N = 6), geometric mean, read-out: t1/2 (converted)): 12.7 h
AUC(0-t) ([2]; male, human, plasma, oral, 12 mg, 12 mg (N = 6), mean, read-out: AUC(0-24)): 1920 ng·h/mL
AUC(0-t) ([2]; male, human, plasma, oral, 12 mg, 12 mg (N = 6), mean, read-out: AUC(0-last)): 2640 ng·h/mL
Vd/F ([2]; male, human, plasma, oral, 24 mg, 24 mg (N = 6), geometric mean, read-out: Vz/F): 69.8 L
half-life ([2]; male, human, plasma, oral, 24 mg, 24 mg (N = 6), geometric mean, read-out: t1/2 (converted)): 12.7 h
AUC(0-t) ([2]; male, human, plasma, oral, 24 mg, 24 mg (N = 6), mean, read-out: AUC(0-24)): 4760 ng·h/mL
AUC(0-t) ([2]; male, human, plasma, oral, 24 mg, 24 mg (N = 6), mean, read-out: AUC(0-last)): 6240 ng·h/mL
AUC(0-t) ([2]; male, human, plasma, oral, 24 mg, SAD study, read-out: maximum value of AUC(0-24)): 6080 ng·h/mL
half-life ([2]; male, human, plasma, oral, 24 mg, across dose range 6, 12, 24 mg, read-out: apparent terminal half-life (t1/2)): 12.7 to 17.1 h
Vd/F ([2]; male, human, plasma, oral, 24 mg, across dose range 6, 12, 24 mg, read-out: apparent volume of distribution (Vz/F)): 69.8 to 91.6 L
AUC(0-t) ([2]; male, human, plasma, oral, 24 mg, highest dose level (24 mg), read-out: mean AUC(0-24)): 4760 ng·h/mL
AUC(0-inf) [2, 3]: 1740 ng·h/mL
Cmax [2, 3]: 234 ng/mL
Tmax ([2]; male, human, plasma, oral, 6 mg (N = 6), median, read-out: tmax): 2.5 h
AUC(0-inf) [2, 4]: 2770 ng·h/mL
Cmax [2, 4]: 285 ng/mL
AUC(0-inf) [2, 5]: 6580 ng·h/mL
Cmax [2, 5]: 909 ng/mL
Tmax ([2]; male, human, plasma, oral, across dose range 6, 12, 24 mg, read-out: median time of maximum concentration (Tmax)): 2.5 to 3 h
absorption after oral administration ([2]; single dose 6 mg, 12 mg, or 24 mg): rapidly absorbed
